System: isolated stratum corneum (SC)
Test: Moisturizing potential on isolated stratum corneum by measurement with a Corneometer (dielectric capacitance)
Conditions: for Mean DHCMi corr. active agent: vehicle-corrected; for Dielectric capacitance of the stratum corneum / moisturizing effect in comparison with glycerol at the same concentration: 5% by weight, result in words
Description: B): Evaluation of the Moisturizing Potential on Isolated Stratum Corneum by Measurement with a Corneometer
A test was performed to evaluate the moisturizing potential of the compounds of the invention formulated in an aqueous solution to an amount of 5% by weight relative to the total weight of the composition.
The technique makes it possible to measure the dielectric capacitance of stratum corneum (SC), which depends on the mean dielectric permittivity value of the tissue. The dielectric permittivity varies greatly with the amount of water contained in the SC.
The SC samples are conditioned at 75% relative humidity and at 25° C. before/during the measurements and the treatment. The capacitance measurement is performed using a Corneometer™ (Courage & Khazaka, Germany).
The test compound, compound 2 according to the invention or a moisturizing active agent such as glycerol, is dissolved in a water/n-propanol mixture (80/20) and the solution is deposited onto the SC at a rate of 10 μl/cm^2 followed by air-drying for a total duration of 1 hour 30 minutes.
Measurement is taken at T0, before the treatment, and a measurement Ttreat is taken after total drying of the treatment.
Each treatment is systematically compared with its control (vehicle) and with its T0.
Using at least two different batches of SC, four to five SC samples are measured per treatment.
The variation in the corneometer signal (HCM) after treatment is calculated first for each SC sample: DHCMi=HCMi(Ttreat)−HCMi(T0). The mean of the DHCMi(vehicle) variations is then calculated for the control samples (treated with the vehicle); this mean value is subtracted from all the DHCMi(active agent) variations to correct the systematic bias.
The following is measured for each sample i: • For the vehicle (control): DHCMi(veh)=HCMiveh(Ttreat)−HCMiveh(T0) • For the active agent: DHCMiactive agent=HCMiactive agent(Ttreat)−HCMiactive agent(T0)
To correct the systematic bias associated with the vehicle, the corrected value DHCMicorr. active agent is considered for the active agent according to: DHCMicorr. active agent−DHCMiactive agent−M
in which M corresponds to the mean of the DHCMi(veh) variations observed on the n control samples:
The mean DHCMi corr. active agent values, and also the associated standard deviations that were obtained, are reported in the table below for compound 2 tested at 5%, in comparison with glycerol at 5%: […]

[1] = 5% by weight in water/n-propanol mixture (80/20), 10 μl/cm2 on SC, 75% RH, 25° C., table for compound 2 vs glycerol
[2] = 5% by weight in water/n-propanol mixture, table for compounds 13 and 14 vs glycerol

SMILES | Mean DHCMi corr. active agent [1] | Mean DHCMi corr. active agent [2] | Dielectric capacitance of the stratum corneum / moisturizing effect in comparison with glycerol at the same concentration
OCC(O)CO [Glycerol, glycerol, reference compound] | 13.8 | 11 | 
CC(O)C(=O)[O-].C[N+](C)(CCO)CCO [Compound 13] |  | 14 | better
C[N+](C)(CCO)CCO.[Cl-] [Compound 2] | 25.9 |  | much better

— patent US20180235860A1, “USE OF DIETHANOLAMMONIUM DERIVATIVES AS SKIN MOISTURIZER” (L'OREAL, priority 2015, published 2018)
